Measurements reported in ChEMBL document CHEMBL1201862, “PubChem BioAssay data set” (2004).
Calls of active or inactive are those of the source.

Legend:
[1] = molecular target: 5-hydroxytryptamine receptor 1A (Homo sapiens, UniProt P08908); format: functional
Danio rerio = experiment: In Vivo Angiogenesis Dose-Response Confirmation. [Related pubchem assays: 732 (Assay preceding this confirmatory assay.)]; format: functional, organism-based
[2] = molecular target: T1, Photoreceptor-specific nuclear receptor (Homo sapiens, UniProt Q9Y5X4); experiment: ligands suppressing NR2E3 nuclear receptor activity – biochemical, TR-FRET, dose response (AID 463256); format: functional
[3] = molecular target: T2, Peroxisome proliferator-activated receptor gamma/Nuclear receptor corepressor 2 (Homo sapiens, UniProt P37231+Q9Y618); experiment: Counterscreen for NR2E3 inverse agonists: TR-FRET-based biochemical high throughput dose response assay to identify inverse agonists of the interaction between peroxisome proliferator-activated receptor gamma (PPARg) and nuclear receptor co-repressor 2 (NCOR2).; format: functional
Fibrinogen beta chain [4] = molecular target: T3, Fibrinogen beta chain (Homo sapiens, UniProt P02675); experiment: Fluorescence polarization-based biochemical high throughput dose response assay to identify inhibitors that disrupt the binding of a cyclic peptide (Tn6) to the fibrin proteolytic product D-Dimer and fragment E complex [DD(E )].
T3 sequence (P02675 whole entry): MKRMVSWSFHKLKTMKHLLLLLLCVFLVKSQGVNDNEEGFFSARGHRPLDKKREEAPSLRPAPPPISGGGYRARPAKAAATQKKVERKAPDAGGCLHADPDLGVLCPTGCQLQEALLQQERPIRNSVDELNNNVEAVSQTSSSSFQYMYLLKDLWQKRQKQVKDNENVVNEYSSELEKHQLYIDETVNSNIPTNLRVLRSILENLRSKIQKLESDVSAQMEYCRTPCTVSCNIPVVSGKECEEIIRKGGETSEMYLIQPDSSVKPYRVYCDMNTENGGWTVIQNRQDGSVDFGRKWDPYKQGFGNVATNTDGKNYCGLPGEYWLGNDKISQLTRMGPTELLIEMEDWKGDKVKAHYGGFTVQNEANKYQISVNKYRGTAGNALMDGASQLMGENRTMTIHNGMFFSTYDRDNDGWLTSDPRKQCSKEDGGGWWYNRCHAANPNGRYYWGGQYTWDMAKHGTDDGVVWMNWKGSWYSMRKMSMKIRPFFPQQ

Bcl-2-like protein 10 = molecular target: T4, Bcl-2-like protein 10 (Homo sapiens, UniProt Q9HD36); experiment: Bcl-B/TR3 peptide binding disruption – biochemical, fluorescence polarization, FITC-TR3 peptide, selectivity assay for Bfl-1 inhibitor project, primary screen (AID 748);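 also: fluorescence polarization from a fluorescein-labelled TR3 peptide binding purified Bcl-B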
T4 sequence (Q9HD36 whole entry): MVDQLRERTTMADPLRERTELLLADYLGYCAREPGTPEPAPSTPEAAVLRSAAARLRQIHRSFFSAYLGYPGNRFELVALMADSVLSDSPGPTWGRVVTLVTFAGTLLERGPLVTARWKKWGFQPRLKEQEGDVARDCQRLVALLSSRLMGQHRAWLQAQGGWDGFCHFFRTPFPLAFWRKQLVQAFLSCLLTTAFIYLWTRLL

[5] = molecular target: T5, RNA-binding protein pos-1 (Caenorhabditis elegans, UniProt G5EF15); experiment: disruptors of C. elegans POS-1 RNA interaction – biochemical, fluorescence polarization, dose response (AID 1964);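 also: purified POS-1 fused to maltose binding protein made in E. coli; potency of compounds blocking POS-1 binding to fluorescent RNA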
T5 sequence (G5EF15 whole entry): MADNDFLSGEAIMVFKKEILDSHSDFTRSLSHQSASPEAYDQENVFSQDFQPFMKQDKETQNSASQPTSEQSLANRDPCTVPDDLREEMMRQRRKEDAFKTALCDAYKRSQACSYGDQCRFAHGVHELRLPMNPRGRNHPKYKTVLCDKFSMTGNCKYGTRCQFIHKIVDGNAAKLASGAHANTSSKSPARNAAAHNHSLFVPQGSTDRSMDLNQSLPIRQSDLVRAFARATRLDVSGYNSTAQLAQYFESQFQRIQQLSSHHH

14-3-3 protein gamma = 14-3-3 protein gamma (Homo sapiens, UniProt P61981); experiment: modulators of 14-3-3 gamma client binding – dose response (AID 711); format: functional
[6] = molecular target: T6, Replicative DNA helicase DnaB (Mycobacterium tuberculosis, UniProt P9WMR3); experiment: DnaB intein splicing inhibitors, dose response, biochemical, cell-free fluorescence (AID 449749); format: functional
T6 sequence (P9WMR3 whole entry): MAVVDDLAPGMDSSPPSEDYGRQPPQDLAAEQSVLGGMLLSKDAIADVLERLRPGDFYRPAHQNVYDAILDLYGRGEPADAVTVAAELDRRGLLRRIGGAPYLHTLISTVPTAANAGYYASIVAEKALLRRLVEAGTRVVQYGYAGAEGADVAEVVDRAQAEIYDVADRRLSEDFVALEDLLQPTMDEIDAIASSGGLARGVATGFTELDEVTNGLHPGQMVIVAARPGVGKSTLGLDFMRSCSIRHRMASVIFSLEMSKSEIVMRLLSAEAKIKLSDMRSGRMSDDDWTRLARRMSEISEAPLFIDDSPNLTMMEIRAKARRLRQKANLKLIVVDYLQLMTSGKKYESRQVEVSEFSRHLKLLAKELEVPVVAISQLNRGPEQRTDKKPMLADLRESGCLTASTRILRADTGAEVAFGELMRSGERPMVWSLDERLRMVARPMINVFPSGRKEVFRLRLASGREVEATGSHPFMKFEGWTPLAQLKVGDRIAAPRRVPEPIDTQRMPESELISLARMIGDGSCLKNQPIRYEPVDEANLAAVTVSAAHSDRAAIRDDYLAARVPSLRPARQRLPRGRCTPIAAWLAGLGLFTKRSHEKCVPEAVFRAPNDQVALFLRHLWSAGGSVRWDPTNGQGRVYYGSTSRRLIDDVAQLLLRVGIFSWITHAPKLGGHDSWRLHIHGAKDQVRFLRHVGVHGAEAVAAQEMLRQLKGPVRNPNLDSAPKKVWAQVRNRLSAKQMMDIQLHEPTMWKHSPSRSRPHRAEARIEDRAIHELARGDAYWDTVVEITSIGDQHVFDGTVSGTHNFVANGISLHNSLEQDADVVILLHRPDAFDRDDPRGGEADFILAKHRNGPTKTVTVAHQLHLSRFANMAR

[7] = molecular target: Tyrosyl-DNA phosphodiesterase 2 (Homo sapiens, UniProt O95551); experiment: potency against TDP2 phosphodiesterase activity – biochemical, epi absorbance, IC50, dose response (AID 743297)
Fibrinogen beta chain [8] = molecular target: T3, Fibrinogen beta chain; experiment: Fluorescence polarization-based biochemical high throughput dose response assay to identify inhibitors that disrupt the binding of a cyclic peptide (Tn7) to the fibrin proteolytic product D-Dimer and fragment E complex [DD(E )].
[9] = IC50 of Artemis nuclease activity blockers – biochemical, fluorescence intensity, dose response (AID 720701); format: functional;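 also: Artemis endonuclease enzyme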
Genome polyprotein [10] = molecular target: Genome polyprotein (dengue virus type 2, UniProt P29990); experiment: flavivirus cap methylation enzyme inhibition – biochemical, confirmation dose response, primary screen (AID 588689); format: functional
[11] = molecular target: T7, Zinc finger protein mex-5 (Caenorhabditis elegans, UniProt Q9XUB2); experiment: potency of MEX-5 RNA-binding blockers – biochemical, C. elegans, fluorescence polarization, dose response (AID 1960)
T7 sequence (Q9XUB2 whole entry): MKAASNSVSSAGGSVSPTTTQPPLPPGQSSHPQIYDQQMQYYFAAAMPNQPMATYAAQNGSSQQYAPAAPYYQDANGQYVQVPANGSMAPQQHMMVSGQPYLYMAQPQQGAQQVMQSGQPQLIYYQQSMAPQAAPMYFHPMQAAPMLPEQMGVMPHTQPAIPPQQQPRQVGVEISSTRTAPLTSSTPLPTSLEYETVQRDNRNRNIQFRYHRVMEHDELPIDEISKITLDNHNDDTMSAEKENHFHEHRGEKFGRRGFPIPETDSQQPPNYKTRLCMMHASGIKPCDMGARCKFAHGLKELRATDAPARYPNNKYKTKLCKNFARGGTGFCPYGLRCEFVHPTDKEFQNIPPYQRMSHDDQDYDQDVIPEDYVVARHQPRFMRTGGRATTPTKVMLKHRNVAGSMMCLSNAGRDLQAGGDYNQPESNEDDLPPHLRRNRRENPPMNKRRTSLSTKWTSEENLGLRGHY

Protein RecA = molecular target: T8, Protein RecA (Mycobacterium tuberculosis, UniProt P9WHJ3); experiment: Fluorescence Cell-Free Homogeneous Dose Retest to Identify Inhibitors of RecA-Intein Splicing Activity. [Related pubchem assays (depositor defined):AID2097, AID2223, AID489010, AID492950]; format: functional
T8 sequence (P9WHJ3 whole entry): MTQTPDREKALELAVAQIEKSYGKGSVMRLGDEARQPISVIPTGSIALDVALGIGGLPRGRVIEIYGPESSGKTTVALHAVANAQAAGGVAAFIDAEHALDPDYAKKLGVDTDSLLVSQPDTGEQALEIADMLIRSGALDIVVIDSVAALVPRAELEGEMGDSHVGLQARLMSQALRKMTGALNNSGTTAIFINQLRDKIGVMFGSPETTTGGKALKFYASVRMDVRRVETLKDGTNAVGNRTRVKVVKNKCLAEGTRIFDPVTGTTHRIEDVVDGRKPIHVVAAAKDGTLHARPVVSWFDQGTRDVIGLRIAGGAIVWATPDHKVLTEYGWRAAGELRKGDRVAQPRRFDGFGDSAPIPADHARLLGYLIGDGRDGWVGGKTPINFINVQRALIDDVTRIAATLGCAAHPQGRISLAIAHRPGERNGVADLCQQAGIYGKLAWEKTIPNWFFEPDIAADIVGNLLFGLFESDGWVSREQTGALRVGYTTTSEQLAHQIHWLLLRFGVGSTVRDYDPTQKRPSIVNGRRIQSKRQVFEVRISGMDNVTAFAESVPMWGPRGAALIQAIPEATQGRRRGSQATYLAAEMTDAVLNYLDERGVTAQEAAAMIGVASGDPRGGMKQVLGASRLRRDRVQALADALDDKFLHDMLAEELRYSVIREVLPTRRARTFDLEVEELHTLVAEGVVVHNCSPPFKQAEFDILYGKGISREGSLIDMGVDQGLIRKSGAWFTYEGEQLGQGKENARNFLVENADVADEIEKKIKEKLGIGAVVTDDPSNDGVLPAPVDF

[12] = alpha-synuclein stem-loop luciferase translation blockers – H4 neuroglioma cells, luminescence, confirmation (AID 1988); format: functional, cell-based
Beta-lactamase [13] = molecular target: Beta-lactamase (Salmonella choleraesuis (strain SC-B67), UniProt Q5J463)
[14] = molecular target: T1, Photoreceptor-specific nuclear receptor; format: functional
[15] = Cytotoxicity screening for potential Inhibitors of Bacterial Capsule Biogenesis. [Related pubchem assays (depositor defined):AID488970]; format: functional
[16] = Luminescence Cell-Based Dose Response HTS to Identify Inhibitors of 5'UTR Stem-Loop Driven Prion Protein mRNA Translation in H4 Neuroglioblastoma Cells. [Related pubchem assays: 1827 (Project Summary), 1813 (Primary HTS)]; format: functional
[17] = molecular target: Histone-lysine N-methyltransferase NSD2 (Homo sapiens, UniProt O96028); format: biochemical
[18] = luciferase reporter signal suppression in cells – H4 neuroglioma cells, luminescence, dose response (AID 1990); format: functional, cell-based
Genome polyprotein [19] = molecular target: Genome polyprotein (Hepatitis C virus, UniProt Q2Q167); experiment: disruption of hepatitis C core self-association – biochemical, TR-FRET, dose response (AID 2159); parameters: species or system Hepacivirus hominis;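 also: blocks dimerization of HCV core protein measured by TR-FRET between tagged core106 pairs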
[20] = molecular target: T2, Peroxisome proliferator-activated receptor gamma/Nuclear receptor corepressor 2; format: functional
Beta-lactamase [21] = molecular target: Beta-lactamase (Pseudomonas aeruginosa, UniProt Q79MP6);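 also: biochemical dose-response test of metallo-beta-lactamase enzyme inhibition, read out by epi-absorbance; purified recombinant IMP-1 metallo-beta-lactamase with nitrocefin as substrate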
Ephrin type-A receptor 4 = Ephrin type-A receptor 4 (Mus musculus, UniProt Q03137); experiment: EphA4 ligand-binding antagonists – biochemical, colorimetric, mouse EphA4, primary screen (AID 689); format: functional

T1 sequence (Q9Y5X4 whole entry): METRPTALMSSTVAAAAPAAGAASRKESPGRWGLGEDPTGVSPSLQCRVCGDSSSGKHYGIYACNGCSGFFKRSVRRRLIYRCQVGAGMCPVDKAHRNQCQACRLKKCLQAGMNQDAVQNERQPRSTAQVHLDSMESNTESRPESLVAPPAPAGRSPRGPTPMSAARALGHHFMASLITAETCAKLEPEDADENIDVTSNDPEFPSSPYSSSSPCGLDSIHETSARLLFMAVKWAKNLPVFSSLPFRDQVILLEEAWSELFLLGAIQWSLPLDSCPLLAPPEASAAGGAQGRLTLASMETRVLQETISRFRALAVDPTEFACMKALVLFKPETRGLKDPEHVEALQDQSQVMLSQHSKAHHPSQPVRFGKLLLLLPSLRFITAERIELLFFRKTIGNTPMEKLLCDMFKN
T2 sequence (P37231 whole entry, the tested form may be a part): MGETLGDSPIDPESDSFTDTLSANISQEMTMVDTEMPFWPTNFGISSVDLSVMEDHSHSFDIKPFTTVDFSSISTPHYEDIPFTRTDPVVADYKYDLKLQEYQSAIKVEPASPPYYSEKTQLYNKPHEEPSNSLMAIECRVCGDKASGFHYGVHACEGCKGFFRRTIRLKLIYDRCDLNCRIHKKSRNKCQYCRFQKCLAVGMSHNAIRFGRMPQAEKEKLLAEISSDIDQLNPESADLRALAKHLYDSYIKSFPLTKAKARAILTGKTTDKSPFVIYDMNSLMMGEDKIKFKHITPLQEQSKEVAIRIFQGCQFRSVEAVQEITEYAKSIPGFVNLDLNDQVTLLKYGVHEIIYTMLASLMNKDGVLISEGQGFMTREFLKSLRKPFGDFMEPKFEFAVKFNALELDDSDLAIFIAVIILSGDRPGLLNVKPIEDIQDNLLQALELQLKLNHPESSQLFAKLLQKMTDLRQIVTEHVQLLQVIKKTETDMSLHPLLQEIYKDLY
T2 sequence (Q9Y618 whole entry, the tested form may be a part): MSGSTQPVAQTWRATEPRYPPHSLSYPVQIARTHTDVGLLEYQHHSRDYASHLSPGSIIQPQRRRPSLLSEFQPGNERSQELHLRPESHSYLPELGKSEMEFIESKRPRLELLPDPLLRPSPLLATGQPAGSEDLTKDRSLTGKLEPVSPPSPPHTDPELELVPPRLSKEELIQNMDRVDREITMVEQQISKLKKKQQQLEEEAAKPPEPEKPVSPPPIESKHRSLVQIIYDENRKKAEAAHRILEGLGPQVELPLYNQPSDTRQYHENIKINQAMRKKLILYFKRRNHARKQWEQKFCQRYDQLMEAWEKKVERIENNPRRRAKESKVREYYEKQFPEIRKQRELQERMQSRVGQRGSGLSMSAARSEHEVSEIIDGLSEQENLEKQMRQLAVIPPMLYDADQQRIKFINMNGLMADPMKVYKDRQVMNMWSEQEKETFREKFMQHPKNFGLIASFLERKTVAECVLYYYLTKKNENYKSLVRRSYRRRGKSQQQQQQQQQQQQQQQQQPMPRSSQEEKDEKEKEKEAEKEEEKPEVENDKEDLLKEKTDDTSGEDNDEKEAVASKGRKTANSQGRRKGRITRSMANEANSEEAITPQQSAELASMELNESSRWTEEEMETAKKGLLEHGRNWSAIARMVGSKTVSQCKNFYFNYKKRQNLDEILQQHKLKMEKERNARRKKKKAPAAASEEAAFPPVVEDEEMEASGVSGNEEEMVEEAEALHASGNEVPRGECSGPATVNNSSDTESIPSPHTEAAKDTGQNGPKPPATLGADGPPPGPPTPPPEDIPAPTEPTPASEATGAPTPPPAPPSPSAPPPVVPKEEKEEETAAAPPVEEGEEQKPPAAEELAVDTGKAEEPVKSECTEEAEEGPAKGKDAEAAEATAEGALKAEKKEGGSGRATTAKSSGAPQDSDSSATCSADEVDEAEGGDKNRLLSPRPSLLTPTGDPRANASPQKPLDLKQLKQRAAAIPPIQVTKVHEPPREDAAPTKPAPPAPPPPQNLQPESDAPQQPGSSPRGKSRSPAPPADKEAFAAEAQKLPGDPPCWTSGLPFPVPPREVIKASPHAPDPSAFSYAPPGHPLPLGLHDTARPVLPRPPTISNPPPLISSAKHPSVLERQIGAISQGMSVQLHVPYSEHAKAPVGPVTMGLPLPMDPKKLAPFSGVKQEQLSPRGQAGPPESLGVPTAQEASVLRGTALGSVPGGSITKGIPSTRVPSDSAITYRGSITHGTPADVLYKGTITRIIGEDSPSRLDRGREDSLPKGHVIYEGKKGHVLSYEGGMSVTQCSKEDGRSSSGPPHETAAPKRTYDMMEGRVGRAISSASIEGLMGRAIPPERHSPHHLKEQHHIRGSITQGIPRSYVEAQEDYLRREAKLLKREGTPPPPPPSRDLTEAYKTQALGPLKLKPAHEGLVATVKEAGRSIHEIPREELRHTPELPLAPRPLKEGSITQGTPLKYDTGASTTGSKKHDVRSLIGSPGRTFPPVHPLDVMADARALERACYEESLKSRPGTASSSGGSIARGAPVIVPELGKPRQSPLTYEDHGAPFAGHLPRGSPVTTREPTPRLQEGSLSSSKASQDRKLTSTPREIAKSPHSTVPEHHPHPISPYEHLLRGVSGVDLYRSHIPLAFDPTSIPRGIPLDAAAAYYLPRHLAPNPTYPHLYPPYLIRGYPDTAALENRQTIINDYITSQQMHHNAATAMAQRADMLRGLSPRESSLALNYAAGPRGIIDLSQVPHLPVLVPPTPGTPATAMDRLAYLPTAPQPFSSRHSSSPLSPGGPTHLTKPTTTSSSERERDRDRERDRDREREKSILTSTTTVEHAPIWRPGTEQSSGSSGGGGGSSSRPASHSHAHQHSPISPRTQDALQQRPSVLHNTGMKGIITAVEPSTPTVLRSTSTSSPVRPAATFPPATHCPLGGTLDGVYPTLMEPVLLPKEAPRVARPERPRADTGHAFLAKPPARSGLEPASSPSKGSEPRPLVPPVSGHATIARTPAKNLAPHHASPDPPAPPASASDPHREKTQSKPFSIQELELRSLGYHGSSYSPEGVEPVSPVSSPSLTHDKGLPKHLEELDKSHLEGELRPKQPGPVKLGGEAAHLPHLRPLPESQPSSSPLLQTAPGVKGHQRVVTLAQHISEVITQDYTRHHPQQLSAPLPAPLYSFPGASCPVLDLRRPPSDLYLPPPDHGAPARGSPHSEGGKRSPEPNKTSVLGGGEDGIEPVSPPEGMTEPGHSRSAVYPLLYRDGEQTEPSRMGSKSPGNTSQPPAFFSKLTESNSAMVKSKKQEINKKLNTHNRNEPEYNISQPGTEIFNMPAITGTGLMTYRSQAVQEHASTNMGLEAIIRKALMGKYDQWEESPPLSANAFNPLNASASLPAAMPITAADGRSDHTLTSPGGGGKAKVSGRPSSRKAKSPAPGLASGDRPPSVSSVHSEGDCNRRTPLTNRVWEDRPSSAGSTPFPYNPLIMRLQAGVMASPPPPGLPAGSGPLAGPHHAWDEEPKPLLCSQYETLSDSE
Genome polyprotein (dengue virus type 2, UniProt P29990), sequence (P29990 2492-3391 limits assumed): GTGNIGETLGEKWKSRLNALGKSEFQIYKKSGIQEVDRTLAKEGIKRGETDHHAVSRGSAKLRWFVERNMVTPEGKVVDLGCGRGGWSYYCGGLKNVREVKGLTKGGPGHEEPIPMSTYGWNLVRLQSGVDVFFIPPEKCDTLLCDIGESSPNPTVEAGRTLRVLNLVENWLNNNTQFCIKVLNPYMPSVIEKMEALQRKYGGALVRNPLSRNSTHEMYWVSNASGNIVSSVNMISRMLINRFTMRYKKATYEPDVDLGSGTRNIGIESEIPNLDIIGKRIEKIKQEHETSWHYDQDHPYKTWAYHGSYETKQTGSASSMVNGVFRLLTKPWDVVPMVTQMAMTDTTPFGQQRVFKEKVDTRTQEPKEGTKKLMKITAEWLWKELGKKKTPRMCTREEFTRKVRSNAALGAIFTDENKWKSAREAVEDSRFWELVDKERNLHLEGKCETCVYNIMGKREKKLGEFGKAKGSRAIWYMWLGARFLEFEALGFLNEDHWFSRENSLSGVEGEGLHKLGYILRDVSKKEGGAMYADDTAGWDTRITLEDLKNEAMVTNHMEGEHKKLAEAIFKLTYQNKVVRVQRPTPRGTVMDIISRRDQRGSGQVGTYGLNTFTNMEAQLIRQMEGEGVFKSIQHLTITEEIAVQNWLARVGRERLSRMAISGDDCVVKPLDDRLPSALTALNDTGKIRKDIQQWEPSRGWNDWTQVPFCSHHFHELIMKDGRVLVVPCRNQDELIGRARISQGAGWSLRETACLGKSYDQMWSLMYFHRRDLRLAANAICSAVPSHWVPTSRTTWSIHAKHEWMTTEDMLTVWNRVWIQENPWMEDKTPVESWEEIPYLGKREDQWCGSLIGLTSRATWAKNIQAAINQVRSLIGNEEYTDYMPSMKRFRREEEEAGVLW
Tyrosyl-DNA phosphodiesterase 2, sequence (O95551 whole entry, the tested form may be a part): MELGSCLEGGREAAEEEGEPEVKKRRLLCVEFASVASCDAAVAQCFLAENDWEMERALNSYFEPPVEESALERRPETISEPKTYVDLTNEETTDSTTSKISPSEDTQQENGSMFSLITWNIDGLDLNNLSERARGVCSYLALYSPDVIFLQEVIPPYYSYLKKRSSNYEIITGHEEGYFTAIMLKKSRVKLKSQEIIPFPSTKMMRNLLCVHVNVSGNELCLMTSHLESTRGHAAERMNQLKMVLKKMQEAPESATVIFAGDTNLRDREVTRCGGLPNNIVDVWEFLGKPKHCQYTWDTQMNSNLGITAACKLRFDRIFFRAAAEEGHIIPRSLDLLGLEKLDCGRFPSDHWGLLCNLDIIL
Beta-lactamase (Pseudomonas aeruginosa, UniProt Q79MP6), sequence (Q79MP6 whole entry): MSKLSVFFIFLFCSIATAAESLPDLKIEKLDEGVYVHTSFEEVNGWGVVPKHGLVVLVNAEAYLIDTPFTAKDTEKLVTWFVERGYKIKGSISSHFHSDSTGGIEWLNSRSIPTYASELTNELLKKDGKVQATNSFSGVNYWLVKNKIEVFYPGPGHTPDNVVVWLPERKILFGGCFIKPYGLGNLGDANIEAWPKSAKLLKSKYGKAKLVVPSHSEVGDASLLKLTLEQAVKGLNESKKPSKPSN
Genome polyprotein (Hepatitis C virus, UniProt Q2Q167), sequence (Q2Q167 whole entry): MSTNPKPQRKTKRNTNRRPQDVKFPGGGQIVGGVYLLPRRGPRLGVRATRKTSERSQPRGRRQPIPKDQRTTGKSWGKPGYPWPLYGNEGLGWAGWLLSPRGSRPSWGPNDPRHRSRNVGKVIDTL

Cc1cccc(NC(=O)C2CCCN(C(=O)Nc3ccccc3)C2)c1C (stereo unspecified)
EC50 [1]: > 50 µM (not active)

COc1cc2ncnc(Nc3cccc(Cl)c3)c2cc1OC [TYRPHOSTIN AG-1478]
IC50 (Danio rerio): 12.7 µM (not active)

Cc1ccc(-c2cc(C(=O)NCc3cnn(C)c3)c3cc(Br)ccc3n2)cc1
IC50 [2]: 2.99 µM (active)
IC50 [3]: 1.56 µM (active)

COc1cc(NCCCC(C)N)c2ncccc2c1 (stereo unspecified)
IC50 (Fibrinogen beta chain [4]): 54.4 µM (inactive)
IC50 (Bcl-2-like protein 10): 8.47 µM (active)
EC50 [5]: 42.5 µM (active)
IC50 (14-3-3 protein gamma): > 50 µM (not active)
AC50 [6]: 4.78 µM (active)
IC50 [7]: 49.2 µM (inactive)
IC50 (Fibrinogen beta chain [8]): > 83.3 µM (inactive)
IC50 [9]: > 20 µM (inactive)
IC50 (Genome polyprotein [10]): > 100 µM (active)
EC50 [11]: 34.3 µM (active)
EC50 (Protein RecA): 0.42 µM (active)

CCN(CC)c1ccc2c(-c3ccc(S(=O)(=O)O)cc3S(=O)(=O)[O-])c3ccc(=[N+](CC)CC)cc-3oc2c1
EC50 [12]: 9.58 µM (active)
IC50 (Beta-lactamase [13]): > 59.6 µM (inactive)
IC50 [14]: > 39.8 µM (not active)
CC50 [15]: 18.4 µM (active)
EC50 [16]: 11.4 µM (active)
AC50 [17]: > 20 µM (inactive)
EC50 [18]: 11.7 µM (active)
IC50 (Genome polyprotein [19]): > 49.8 µM (not active)
IC50 [20]: 1.02 µM (active)
IC50 (Beta-lactamase [21]): > 59.6 µM (inactive)

CCN(CCNC(=O)C1CCCN(S(=O)(=O)CC)C1)c1ccccc1 (stereo unspecified)
IC50 (Ephrin type-A receptor 4): > 100 µM (not active)
